Test systems include U251 CNS; SW-620 colon; EKVX NSCLC; UO-31 renal; MCF7 breast; RXF 393 renal; MALME-3M melanoma; OVCAR-5 ovarian; MDA-MB-231 breast; T-47D breast.
Assay in all cases: DTP human tumour cell line panel, 48 h

Where “and” joins values, the source holds several entries; their conditions need not be identical. Equal entries are not always repeated.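 48-hour exposure; five concentrations; linearly interpolated endpoints. Here, GI50 denotes the concentration required for 50% inhibition of growth. Definition used: TGI = concentration required for complete inhibition of growth.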

For `CNC(=O)c1cc(Oc2ccc(NC(=O)Nc3ccc(Cl)c(C(F)(F)F)c3)c(F)c2)ccn1`, the GI50 – broadly, the concentration at which growth is held to half of that of the control – in the experiment on U251 CNS was 2.79 µM and 2.46 µM; with SW-620 colon, 2.23 µM and 2.47 µM; in the experiment with EKVX NSCLC, 2.96 µM and 2.68 µM; with UO-31 renal, 1.53 µM and 1.82 µM; in the experiment with MCF7 breast, 2.12 µM and 2.29 µM; with RXF 393 renal it was 3.83 µM and 2.91 µM. Further, the GI50 is 0.76 µM and 1.95 µM with MALME-3M melanoma; 2.68 µM and 2.3 µM in the experiment with OVCAR-5 ovarian; 1.22 µM and 1.26 µM in the experiment with MDA-MB-231 breast; 2.08 µM and 1.53 µM in the experiment with T-47D breast. The TGI (in general, the concentration at which net growth stops) with U251 CNS is 11.3 µM and > 10 µM; with SW-620 colon, 14.9 µM and > 10 µM; in the experiment with EKVX NSCLC, greater than 44 µM; with UO-31 renal, 4.22 µM and > 10 µM; with MCF7 breast, 6.88 µM and 9.02 µM; with RXF 393 renal it was 17 µM and > 10 µM. In addition, the TGI is 5.87 µM and > 10 µM with MALME-3M melanoma; greater than 44.4 µM in the experiment with OVCAR-5 ovarian; 4.44 µM and 4.92 µM with MDA-MB-231 breast; 9.1 µM and 7.49 µM in the experiment with T-47D breast.
Take `COc1cccc(CC(C)=C(c2ccc(OCCN3CCCCC3)cc2)c2ccc(OCCN3CCCCC3)cc2)c1`: the GI50 is 1.81 µM with U251 CNS; 1.74 µM in the experiment with SW-620 colon; 2.03 µM with EKVX NSCLC; 1.84 µM in the experiment on UO-31 renal; 0.728 µM with MCF7 breast; 0.916 µM with RXF 393 renal. Further, the GI50 in the experiment on MALME-3M melanoma is 1.84 µM; with OVCAR-5 ovarian, 2.02 µM; in the experiment with MDA-MB-231 breast it was 1.92 µM; with T-47D breast, 1.58 µM. The TGI with U251 CNS turned out to be 3.7 µM; with SW-620 colon, 3.78 µM; with EKVX NSCLC, 4.48 µM; in the experiment with UO-31 renal, 3.66 µM; in the experiment with MCF7 breast, 2.81 µM; in the experiment with RXF 393 renal, 2.88 µM. For the same compound, the TGI with MALME-3M melanoma stood at 3.81 µM; in the experiment with OVCAR-5 ovarian, 3.99 µM; with MDA-MB-231 breast, 4.02 µM; with T-47D breast, 4.06 µM.
As for `Cc1ccc(/C=N/Nc2nc(Nc3ccccc3)nc(-n3nc(C)cc3C)n2)cc1`, the GI50 with U251 CNS was 4.88 µM; in the experiment on SW-620 colon it was 5.75 µM; with EKVX NSCLC it was 3 µM; in the experiment on UO-31 renal, 4.09 µM; in the experiment on MCF7 breast it was 2.89 µM; in the experiment on MALME-3M melanoma, 4.21 µM. Further, the GI50 in the experiment with OVCAR-5 ovarian was 15.4 µM; in the experiment with MDA-MB-231 breast, 6.44 µM; in the experiment with T-47D breast it was 2.55 µM. For the same compound, the TGI is greater than 100 µM in the experiment on U251 CNS; greater than 100 µM in the experiment on SW-620 colon; 31.5 µM in the experiment with EKVX NSCLC; 19.7 µM in the experiment with UO-31 renal; 10.6 µM in the experiment on MCF7 breast; 26.8 µM in the experiment with MALME-3M melanoma. Besides, the TGI in the experiment on OVCAR-5 ovarian is greater than 100 µM; in the experiment on MDA-MB-231 breast, greater than 100 µM; in the experiment with T-47D breast it was 7.41 µM.
Turning to `Cc1ccc(S(=O)(=O)SC(C)(C)C)cc1`, the TGI was greater than 100 µM with U251 CNS; 47.9 µM in the experiment on SW-620 colon; greater than 63.9 µM in the experiment on EKVX NSCLC; greater than 100 µM with UO-31 renal; 42.1 µM in the experiment with MCF7 breast; greater than 62 µM in the experiment with MALME-3M melanoma. The TGI with OVCAR-5 ovarian is greater than 76 µM; in the experiment on MDA-MB-231 breast, 47.6 µM; with T-47D breast, greater than 100 µM.
As to `COCc1c(-c2cc3cc(C)cc(OC)c3s2)c2c(N)ncnn2c1CN1CCNC(=O)C1`, the GI50 with U251 CNS is 3.86 µM; in the experiment on SW-620 colon, 3.5 µM; in the experiment on EKVX NSCLC, 2.67 µM; with UO-31 renal it was 1.76 µM; with MCF7 breast, 3.82 µM; with MALME-3M melanoma, 2.83 µM. Moreover, the figures for the GI50 in the experiment on OVCAR-5 ovarian, in the experiment on MDA-MB-231 breast and with T-47D breast were 4.11 µM, 6.11 µM and 4.84 µM, respectively. Besides, the TGI with U251 CNS is 79.7 µM; in the experiment with SW-620 colon, greater than 100 µM; in the experiment with EKVX NSCLC, 29.8 µM; in the experiment on UO-31 renal, 11.9 µM; with MCF7 breast, 33.6 µM; in the experiment on MALME-3M melanoma, 17.3 µM. Besides, the TGI in the experiment on OVCAR-5 ovarian was 77 µM; in the experiment with MDA-MB-231 breast it was 61.4 µM; with T-47D breast it was 47.4 µM.
`COc1ccc2c(c1OC)CO[C@@H]2[C@H]1c2c(cc3c(c2OC)OCO3)CCN1S(=O)(=O)c1cn(C)cn1`: the GI50 in the experiment with U251 CNS was 2.24 µM; in the experiment with SW-620 colon it was 1.2 µM; in the experiment on EKVX NSCLC, 13.1 µM; in the experiment on UO-31 renal it was 5.2 µM; in the experiment with MCF7 breast, 0.407 µM; in the experiment with MALME-3M melanoma, 0.77 µM. The GI50 in the experiment on OVCAR-5 ovarian is 4.22 µM; in the experiment with MDA-MB-231 breast, 4.49 µM; with T-47D breast it was 16.9 µM. Moreover, the TGI with U251 CNS, with SW-620 colon, with EKVX NSCLC, in the experiment with UO-31 renal, in the experiment with MCF7 breast and in the experiment with MALME-3M melanoma was greater than 100 µM throughout. For the same compound, the TGI in the experiment with OVCAR-5 ovarian, with MDA-MB-231 breast and in the experiment with T-47D breast was greater than 100 µM in each case.
With `Cc1cccc2nc3ccccc3c(Nc3ccc(NS(C)(=O)=O)cc3)c12`, the GI50 was 3.15 µM in the experiment with U251 CNS; 4.27 µM in the experiment on SW-620 colon; 2.61 µM in the experiment on UO-31 renal; 3.62 µM with MCF7 breast; 10.8 µM in the experiment on RXF 393 renal; 4.99 µM in the experiment with MALME-3M melanoma. Also, the GI50 was 16.4 µM in the experiment on OVCAR-5 ovarian, 9.57 µM in the experiment with MDA-MB-231 breast and 7.59 µM in the experiment on T-47D breast. Also, the TGI with U251 CNS stood at 13.5 µM; in the experiment with SW-620 colon, 20.3 µM; in the experiment with UO-31 renal, 12.4 µM; with MCF7 breast, 21.7 µM; with RXF 393 renal, 23.6 µM; with MALME-3M melanoma it was 19.4 µM. In addition, the total growth inhibition concentration (TGI) with OVCAR-5 ovarian was found to be 38.9 µM; in the experiment with MDA-MB-231 breast, 24.2 µM; in the experiment with T-47D breast it was 24 µM.
Turning to `CCC(C)[C@H](NC(=O)Nc1cc(C(F)(F)F)cc(C(F)(F)F)c1)C(=O)N[C@@H](Cc1cn(C)cn1)C(=O)OC` (some centres undefined), the GI50 in the experiment on U251 CNS is 1.33 µM; with SW-620 colon it was 0.69 µM; with UO-31 renal it was 1.52 µM; with MCF7 breast, 0.513 µM; in the experiment on RXF 393 renal it was 0.523 µM; in the experiment with MALME-3M melanoma, 1.41 µM. Further, the GI50 with OVCAR-5 ovarian is 1.32 µM; in the experiment on MDA-MB-231 breast, 0.619 µM; with T-47D breast, 0.912 µM. Besides, the TGI was 1.8 µM with U251 CNS; 1.53 µM in the experiment with SW-620 colon; 2.31 µM in the experiment with UO-31 renal; 1.08 µM in the experiment with MCF7 breast; 0.98 µM in the experiment with RXF 393 renal; 2.01 µM in the experiment with MALME-3M melanoma. Further, the TGI in the experiment with OVCAR-5 ovarian turned out to be 1.83 µM; with MDA-MB-231 breast, 1.12 µM; in the experiment on T-47D breast it was 1.74 µM.

(Values after PubChem BioAssay (NCI).)
